Data reported in patent publication US20090192077A1, “North-2'deoxy -methanocarbathymidines as antiviral agents for treatment of kaposi's sarcoma-associated herpes virus” (priority 2005, published 2009).
Blank lines part the entries; values can stand above or below the compound they belong to.

How the values were obtained:
KSHV [1] = assay: Anti-KSHV activity in PMA-induced BCBL-1 cells (virion-associated and cytoplasmic KSHV DNA by PCR); assay type: cell-based, Kaposi's sarcoma-associated herpesvirus; conditions: for IC50 / IC90: Human gammaherpesvirus 8, BCBL1, 72 h, PMA-stimulated BCBL-1 cells, KSHV virion production, 3 days; for IC50: read-out: IC50 (μM) (mean ± SD), anti-KSHV activity; for IC90: read-out: IC90 (μM) (mean ± SD), anti-KSHV activity
Description: A small fraction (1-3%) of BCBL-1 cells in culture is known to spontaneously undergo lytic cycle and release KSHV virions (Kedes, D. H. et al. 1997 J Clin Invest 99:2082-6; Renne, R. et al. 1996 Nat Med 2:342-6). The antiviral effects of N-MCT and two reference anti-herpetic compounds, CDV and GCV, were determined by the relative reduction in the amounts of cytoplasmic KSHV DNA and newly released KSHV virion-associated DNA in BCBL-1 cells exposed to the test compounds, following lytic induction by phorbol ester, PMA (Renne, R. et al. 1996 Nat Med 2:342-6).
Exponentially growing BCBL-1 cells were washed three times with phosphate-buffered saline (PBS) and resuspended in serum free AIM-V w/BSA medium (Invitrogen, Carlsbad, Calif.) at 2×10^5 cells/mL in the absence (unstimulated control) or presence of 20 ng/mL PMA. After 24 hours, unstimulated and PMA-stimulated BCBL-1 were harvested, washed once with PBS and cultured in serum free AIM-V w/BSA medium at 2×10^5 cells/mL without PMA in the absence or presence of the test compounds at varying concentrations. After 3 days, the cells were counted by the trypan blue dye exclusion method and centrifuged at 1,500 rpm for 5 min. The supernatants were centrifuged at 3,000 rpm for 10 min before subjected to virion-derived KSHV DNA extraction and quantitation, as described below.
Low molecular weight (LMW) DNA was extracted from the pelleted cells according to Hirt's method (Hirt, B. 1967 J Mol Biol 26:365-9) and 0.1 μg of LMW DNA was used for KSHV open reading frame 65 (ORF65) PCR by a primer pair (5′-[…]-3′, SEQ ID NO: 2) and 5′-[…]-3′, SEQ ID NO: 3), generating a 529 bp fragment. The ORF65 PCR reaction mixture, containing 20 mM Tris-HCl (pH 8.4), 50 mM KCl, 2.5 mM MgCl2, 200 μM each dNTP, 0.25 U of Platinum® Taq DNA polymerase (Invitrogen), […] and template DNA, was subjected to 25 cycles of PCR amplification at 94° C. for 60 sec, 60° C. for 60 sec and 72° C. for 60 sec, followed by a final extension at 72° C. for 5 min. In addition, the mitochondrial DNA primer pair (5′-[…]-3′, SEQ ID NO: 4 and 5′-[…]-3′, SEQ ID NO: 5) was used as an internal control for each LMW DNA PCR sample (Yang, Q. et al. 2005 J Virol 79:6122-6133). The amplified products were visualized by electrophoresis on a 1.8% agarose gel.
KSHV virions were pelleted from 300 μL of BCBL-1 culture supernatants by a microcentrifugation at 37,000 g for 2 hours at 4° C. The pelleted virions were resuspended in 150 μL PBS and treated with 20 units of DNase I (Promega, Madison, Wis.) at 37° C. for 30 min to remove cellular DNA from the samples, followed by the incubation with stop solution (20 mM EGTA) at 70° C. for 5 min. Virion-associated KSHV DNA (vDNA) was then extracted by QIAamp DNA extraction kit (QIAGEN, Valencia, Calif.) according to the manufacturer's instructions. One μL of vDNA eluted in 100 μL of elution buffer was subjected to real-time quantitative PCR using a LightCycler® instrument (Roche Applied Science, Indianapolis, Ind.). The 20-μL reaction mixture consisted of the LightCycler FastStart DNA Master SYBR Green I reagents mix (Roche Applied Science), 2.5 mM MgCl2 and 500 nM each of KSHV ORF26 primer pair (5′-[…]-3′, SEQ ID NO: 6 and 5′-[…]-3′, SEQ ID NO: 7). Ten-fold serial dilutions of the plasmid, pKS330Bam (obtained through the AIDS Research and Reference Reagent Program, Division of AIDS, NIAID, NIH, contributed by Drs. Yuan Chang and Patrick Moore), which contained a 330 bp KSHV fragment encoding a portion of the ORF26 gene (Chang, Y. et al. 1994 Science 266:1865-9), were included in each assay as external standards to represent 10 to […] KSHV DNA copies/tube. The number of KSHV vDNA in each supernatant sample was calculated by the LightCycler software version 3.5 (Roche Applied Science), adjusted by the cell count and expressed as copies/10^6 cells.

[2] = test system: PMA-stimulated BCBL-1 cells; assay: Cytotoxicity by XTT assay in BCBL-1 cells
Description: (§1) The cytotoxicity of the compounds was determined simultaneously in uninduced and PMA-induced BCBL-1 cells in microplates, using the XTT assay (Weislow, O, S. et al. 1989 J Natl Cancer Inst 81:577-86).
PMA-stimulated BCBL-1 cells were cultured with increasing concentrations of N-MCT, CDV or GCV and the cell growth was determined by XTT method (Weislow, O, S. et al. 1989 J Natl Cancer Inst 81:577-86) after 72 hours and shown as % no drug control (mean±SD of triplicate wells).

KSHV [3] = assay: Anti-KSHV activity in the presence of herpesvirus TK inhibitor 5'-ET; assay type: cell-based, Kaposi's sarcoma-associated herpesvirus; conditions: PMA-induced BCBL-1; 1 μM N-MCT or 10 μM CDV with 10, 20 or 50 μM 5'-ET
Description: as §1
Exponentially growing BCBL-1 cells or CEM-SS cells (a human T cell line) were washed three times with PBS and cultured in serum free AIM-V w/BSA medium (Invitrogen) at 2×10^5 cells/mL in the absence (unstimulated control) or presence of 20 ng/mL PMA. After 24 hours, unstimulated and PMA-stimulated cells were harvested, washed once with PBS and resuspended in […] radiolabeled compound [^3H]-(N)-MCT, [^3H]-CDV or [^3H]-GCV. Control cultures containing the same concentration of the test compounds but without the radiolabeled formulations were simultaneously set up in an identical manner to assess the cell counts and to evaluate their anti-KSHV activity. In selected experiments, 5′-ET was added at 10˜50 μM to investigate the changes in the anti-KSHV activity and intracellular phosphorylation profiles of the test compounds. The cells were harvested after 24 or 72 hours of incubation.

HSV-1 = conditions: cited from earlier work
HSV-2 = conditions: cited from earlier work
BCBL-1 cells = assay: Intracellular phosphorylation in KSHV-infected BCBL-1 cells (HPLC of methanolic extracts)
Description: Exponentially growing BCBL-1 cells or CEM-SS cells (a human T cell line) were washed three times with PBS and cultured in serum free AIM-V w/BSA medium (Invitrogen) at 2×10^5 cells/mL in the absence (unstimulated control) or presence of 20 ng/mL PMA. After 24 hours, unstimulated and PMA-stimulated cells were harvested, washed once with PBS and resuspended in serum free AIM-V […] radiolabeled compound [^3H]-(N)-MCT, [^3H]-CDV or [^3H]-GCV. Control cultures containing the same concentration of the test compounds but without the radiolabeled formulations were simultaneously set up in an identical manner to assess the cell counts and to evaluate their anti-KSHV activity. In selected experiments, 5′-ET was added at 10˜50 μM to investigate the changes in the anti-KSHV activity and intracellular phosphorylation profiles of the test compounds. The cells were harvested after 24 or 72 hours of incubation.
Upon harvest, the cells were centrifuged at 1,500 rpm for 10 min and washed once with cold PBS. The cell pellets were resuspended in 250 μL of 60% methanol and heated at 95° C. for 3 min, followed by a microcentrifugation at 12,000 g for 10 min at 4° C. The clarified supernatant fractions were evaporated under nitrogen, redissolved in 250 μL of water and subjected to HPLC separation of the phosphorylated metabolites as described in detail elsewhere (Noy, R. et al. 2002 Mol Cancer Ther 1:585-93; Zalah, L. et al. 2002 Antiviral Res 55:63-75). Fractions containing radiolabeled nucleotides were quantitated based on the known specific activity of the parent tritiated nucleoside (Noy, R. et al. 2002 Mol Cancer Ther 1:585-93; Zalah, L. et al. 2002 Antiviral Res 55:63-75).

[4] = biological target: T1, recombinant KSHV DNA polymerase (rPOL) and polymerase processivity factor (rPPF) (Human herpesvirus 8 type P, UniProt Q2HRD0); conditions: read-out: IC50 (μM) (mean ± SD), KSHV rPOL/rPPF-mediated DNA synthesis; 37° C., 60 min
T1 sequence (Q2HRD0 1-1012): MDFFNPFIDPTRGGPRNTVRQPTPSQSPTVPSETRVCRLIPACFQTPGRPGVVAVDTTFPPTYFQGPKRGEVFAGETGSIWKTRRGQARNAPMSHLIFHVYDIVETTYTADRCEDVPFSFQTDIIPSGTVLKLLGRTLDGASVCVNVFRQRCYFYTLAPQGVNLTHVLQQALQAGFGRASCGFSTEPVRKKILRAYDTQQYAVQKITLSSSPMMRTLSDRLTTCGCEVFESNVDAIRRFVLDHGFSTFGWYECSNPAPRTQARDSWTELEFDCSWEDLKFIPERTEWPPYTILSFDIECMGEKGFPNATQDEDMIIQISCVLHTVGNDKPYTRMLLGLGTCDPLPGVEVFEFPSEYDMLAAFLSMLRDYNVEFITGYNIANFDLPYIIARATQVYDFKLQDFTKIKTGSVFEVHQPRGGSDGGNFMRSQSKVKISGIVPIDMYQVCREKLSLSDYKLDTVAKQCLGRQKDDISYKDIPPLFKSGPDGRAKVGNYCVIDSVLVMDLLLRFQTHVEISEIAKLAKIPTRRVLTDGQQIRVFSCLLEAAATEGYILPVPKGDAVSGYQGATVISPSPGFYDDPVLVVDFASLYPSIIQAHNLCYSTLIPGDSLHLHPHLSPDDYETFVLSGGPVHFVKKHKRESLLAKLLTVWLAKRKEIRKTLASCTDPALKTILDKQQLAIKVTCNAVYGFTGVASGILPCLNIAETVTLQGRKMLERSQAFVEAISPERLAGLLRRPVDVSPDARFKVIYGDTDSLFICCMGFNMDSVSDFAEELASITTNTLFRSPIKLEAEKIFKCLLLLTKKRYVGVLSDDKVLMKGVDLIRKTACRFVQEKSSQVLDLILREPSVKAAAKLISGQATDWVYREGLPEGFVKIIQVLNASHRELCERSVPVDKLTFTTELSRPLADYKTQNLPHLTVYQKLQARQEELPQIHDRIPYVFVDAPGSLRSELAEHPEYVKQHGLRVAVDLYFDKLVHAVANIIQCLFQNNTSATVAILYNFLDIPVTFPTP
T1 sequence (F5HID2 1-396 partner): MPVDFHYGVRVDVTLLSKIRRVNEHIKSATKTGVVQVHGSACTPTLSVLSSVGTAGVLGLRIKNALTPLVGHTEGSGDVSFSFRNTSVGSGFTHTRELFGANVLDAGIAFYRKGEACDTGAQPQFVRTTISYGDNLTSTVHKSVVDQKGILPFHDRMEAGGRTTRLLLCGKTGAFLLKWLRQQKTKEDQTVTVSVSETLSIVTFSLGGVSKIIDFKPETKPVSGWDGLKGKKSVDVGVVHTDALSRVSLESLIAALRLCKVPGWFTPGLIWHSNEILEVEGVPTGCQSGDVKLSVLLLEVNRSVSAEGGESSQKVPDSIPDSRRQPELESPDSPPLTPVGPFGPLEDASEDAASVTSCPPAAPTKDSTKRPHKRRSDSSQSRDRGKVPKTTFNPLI
Description: KSHV rPOL and rPPF were expressed and purified from the recombinant baculovirus-vector infected Sf9 cells (Dorjsuren, D. et al. 2003 Protein Expr Purif 29:42-50). […] The amounts of newly synthesized DNA, which incorporated DIG-dUTP, were determined by the DIG detection kit (Roche Applied Science) according to the manufacturer's instructions.

Compound: Cc1cn(C2CC(O)C3(COP(=O)(O)O)CC23)c(=O)[nH]c1=O (stereo not shown) [N-MCT-MP]
level of phosphorylated metabolite in the presence of 50 μM 5'-ET (BCBL-1 cells): accumulation

Compound: ganciclovir triphosphate [GCV-TP]
IC50 [4]: 24.6 ± 5.6 µM

Compound: cidofovir diphosphate [CDV-DP]
IC50 [4]: 14.7 ± 2.47 µM

Compound: Cc1cn([C@H]2C[C@H](O)[C@]3(COP(=O)(O)OP(=O)(O)O)C[C@H]23)c(=O)[nH]c1=O [N-MCT-DP]
level of phosphorylated metabolite in the presence of 50 μM 5'-ET (BCBL-1 cells): substantially decreased

Compound: Cc1cn([C@@]23C[C@H](O)[C@@H](CO)[C@@H]2C3)c(=O)[nH]c1=O [S-MCT, south-methanocarbathymidine]
antiviral activity against KSHV (KSHV [1]; data not shown): no antiviral activity
antiviral activity against HSV-1 (HSV-1): no antiviral activity
antiviral activity against HSV-2 (HSV-2): no antiviral activity

The next lines start with results.

IC50 (KSHV [1]): 0.08 ± 0.03 µM
IC90 (KSHV [1]): 0.68 ± 0.1 µM
Compound: Cc1cn([C@H]2C[C@H](O)[C@]3(CO)C[C@H]23)c(=O)[nH]c1=O [N-MCT, North-methanocarbathymidine]
50% cytotoxic concentration ([2]; human, 72 h): > 200 µM
effect of adding 5'-ET on anti-KSHV activity (KSHV [3]): marked increases in the level of cytoplasmic KSHV DNA
antiviral activity against HSV-1 (HSV-1): strong antiviral activity
antiviral activity against HSV-2 (HSV-2): strong antiviral activity

IC50 (KSHV [1]): 0.96 ± 0.49 µM
IC90 (KSHV [1]): 7.11 ± 0.28 µM
Compound: Nc1nc(O)c2ncn(COC(CO)CO)c2n1 [GCV, ganciclovir]

IC50 (KSHV [1]): 0.42 ± 0.07 µM
IC90 (KSHV [1]): 4.01 ± 2.05 µM
Compound: Nc1ccn(C[C@@H](CO)OCP(=O)(O)O)c(=O)n1 [CDV, cidofovir]
cytotoxicity at anti-KSHV concentrations ([2]; 0.03 to 10 μM, PMA-induced BCBL-1 cells): without notable cytotoxicity
effect of adding 5'-ET on anti-KSHV activity (KSHV [3]): not affected
